Measurements reported in EP3638283B1, “ANTAGONISTS OF CAV2.3 R-TYPE CALCIUM CHANNELS FOR THE TREATMENT OF NEURODEGENERATIVE DISEASES” (Lario Therapeutics Ltd., priority 2017, dated 2018).
Like-named read-outs stand apart in the source and are kept apart here.

How the values were obtained:
[1] = target: T1, voltage-sensitive A-type Kv4.3 K+ channels (Homo sapiens, UniProt Q9UK17); settings: Kimm & Bean 2014; cited from earlier work
T1 sequence (Q9UK17 1-655): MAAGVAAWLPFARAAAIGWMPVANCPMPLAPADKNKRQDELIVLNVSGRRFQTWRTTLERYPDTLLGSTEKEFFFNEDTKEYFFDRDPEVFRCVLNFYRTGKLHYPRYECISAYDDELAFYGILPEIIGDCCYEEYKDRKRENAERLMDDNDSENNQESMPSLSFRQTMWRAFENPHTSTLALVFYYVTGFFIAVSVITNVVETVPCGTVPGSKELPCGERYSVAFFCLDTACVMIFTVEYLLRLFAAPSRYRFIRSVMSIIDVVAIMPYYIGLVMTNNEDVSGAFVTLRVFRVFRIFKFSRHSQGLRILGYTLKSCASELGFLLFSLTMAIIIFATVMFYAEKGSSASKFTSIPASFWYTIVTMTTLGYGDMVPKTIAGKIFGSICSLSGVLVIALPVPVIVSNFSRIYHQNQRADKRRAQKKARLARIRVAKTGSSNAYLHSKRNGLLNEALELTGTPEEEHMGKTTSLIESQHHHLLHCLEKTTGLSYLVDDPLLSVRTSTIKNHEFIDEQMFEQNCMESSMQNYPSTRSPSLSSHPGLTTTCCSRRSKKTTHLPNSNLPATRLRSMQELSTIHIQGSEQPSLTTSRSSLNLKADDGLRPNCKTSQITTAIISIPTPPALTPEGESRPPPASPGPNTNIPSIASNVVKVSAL

[2] = system: SN DA neurons; format: cell-based, mouse
[3] = system: SN DA neurons; format: cell-based, mouse; remark: listed apart in the source
[4] = system: SN DA neurons; test: Dopamine auto-inhibition of SN DA neuron pacemaker activity, patch-clamp recordings in mouse brain slices; format: cell-based; settings: isradipine 300nM; dopamine 100 µM
[5] = system: SN DA neurons; settings: neurotoxin PD-mouse models; pharmacological L-type calcium channel inhibition (Ilijic et al., 2011; Ortner et al., 2017); cited from earlier work
[6] = Parkinson Study, 2013; cited from earlier work
[7] = system: SN DA neurons; settings: cited from earlier work

Compound: SNX-482
- affinity of inhibition of A-type Kv4.3 K+ channels [1]: high nanomolar affinity
- action potential-induced somatic Ca^2+ transients [2]: significantly reduced
- D2-AR responses of adult SN DA neurons (dopamine-autoinhibition) [3]: desensitized D2-AR responses

Compound: COC(=O)C1=C(C)NC(C)=C(C(=O)OC(C)C)C1c1cccc2nonc12 (stereo not drawn) [isradipine]
- sensitized dopamine-autoinhibition of SN DA neurons [4]: did not substantially alter
- SN DA neuroprotection [5]: inconclusive findings
- maximal tolerable dosis [6]: 10 mg/day
- somatic activity-dependent Ca^2+ oscillations ([7]; cell body of WT SN DA neurons, in the presence of isradipine (Ortner et al., 2017)): not significantly affected
- sensitivity of activity-dependent Ca^2+ oscillations in SN DA neurons to the blocker ([7]; distal dendrites versus cell-bodies (Guzman et al., 2010; Ortner et al.)): only in distal dendrites but not in the cell-bodies

Compound: ω-conotoxin MVIIC [[…]-conotoxin MVIIC]
- sensitized dopamine-autoinhibition of SN DA neurons [3]: did not substantially alter
